Entries after “also recorded” stand apart in the source; their conditions may differ.
Key:
PR-A = PR-A mRNA expression by RT-PCR in treated YHES cells; assay type: cell-based, human
Method: (§1) The YHES cells were harvested by trypsinization and seeded in 12-well at 5×10^4 cells/well plates and were pretreated with E2 and P as described above. […] Total RNA was isolated from treated cells using TRIzol reagent (Invitrogen, Carlsbad, Calif.) according to the manufacturer's instructions. The integrity of total RNA was inspected on an agarose gel. One microgram of total RNA from each sample was treated with DNase I to remove potential DNA contamination and then reverse-transcribed using Superscript II Reverse Transcriptase (Invitrogen). First-strand cDNA obtained from RNA samples was stored at −80° C. until use. To measure the mRNA expression levels of AR, PR-A, PR-B, Fas and FasL in each cell culture, semi-quantitative PCR analysis was performed.
(§2) Quantitative real-time RT-PCR was carried out on an ABI 7900 DNA sequencer (Applied Biosystems), and monitored by SYBR Green I (Qiagen, Valencia, Calif.). The PCR products of the expected size were visualized on a 0.8% agarose gel. The relative mRNA level of each gene was calculated using relative quantitation of gene expression (Applied Biosystems, Foster City, Calif.) with 18s as an endogenous control. The reproducibility of the quantitative measurements was evaluated by two independent cDNA syntheses. The means and standard deviations of the replicated measurements were calculated and presented as mean ±s.d.

COX-2 = details: cited from earlier work
AR [1] = assay: AR mRNA expression by RT-PCR in treated YHES cells; assay type: cell-based, human
Method: as §1, §2

PR-B = PR-B mRNA expression by RT-PCR in treated YHES cells; assay type: cell-based, human
Method: as §1, §2

[2] = system: YHES cells (immortalized human endometrial stromal cell line); assay: MTT cell proliferation assay in YHES cells; assay type: cell-based; details: 48 hr
Method: An immortalized human endometrial stromal cell line was maintained following Krikun et al. (Krikun et al. 2004 Endocrinology 145:2291-6). Cells were maintained in phenol red-free DMEM/F12 (Gibco, CA) medium supplemented with 10% charcoal-dextran stripped FBS (Biomeda, CA), 1 μl/ml sodium pyruvate (Gibco, CA) and 1× Pen/Strep/Fungizone (Gibco, CA), at 37° C. with 5% C02 in a humidified incubator.
(§3) The YHES cells were harvested by trypsinization and seeded in 96-well plate at ˜1×10^4 cells/well. The cells were allowed to attach to the plate for overnight at 37° C. with 5% C02 in a humidified incubator. Then they were pretreated with physiological concentration of E2 (10^-9M) and P (10^-7M) for 24 hr to maintain hormonal responsiveness. […] Cell growth was valuated by the MTT assay (ATCC, Manassas, Va.). MTT assay was performing according to the manufacturer's instructions, and in triplicate to generate mean values. Cell numbers in the untreated control were arbitrarily assigned as 1. The relative cell growth was expressed as fold increase/decrease relative to the control. Data were presented as mean values from three independently repeated experiments.

AR [3] = assay: Western blot of AR protein in treated YHES cells; assay type: cell-based, human; details: 16 hrs; TSA 10 μM, CDB 100 μM, NAC 10 mM
Method: Western blot analysis was performed to measure protein expression of β-actin, ERα, ERβ, and AR. […] Whole cell lysate was prepared as previously described (44) by using RIPA lysis buffer containing 50 mM Tris, pH 7.4, 150 mM NaCl, 12 mM EDTA, 1% Triton X-100, 0.5% sodium deoxycholate, and 0.1% SDS. To avoid degradation, a protease inhibitor cocktail III (Sigma) was added at 2%. Total protein was quantified using a BCA protein assay kit (Pierce, Rockford, Ill.). Ten microgram of total protein was separated by electrophoresis on 10% SDS-polyacrylamide gels. The protein was then transferred onto PVDF membranes (Milipore, Bedford, Mass.). […] The blot was then subsequently incubated with primary antibody rabbit anti-human ERα (Santa Cruz Biotechnology, CA), rabbit anti-human ERβ (Zymed Laboratories, South San Francisco, Calif.), rabbit anti-β-actin (Cell Signaling Technology, Beverly, Mass.), or rabbit ant-human AR (Santa Cruz Biotechnology, CA), respectively, in blocking solution (5% nonfat dry milk plus PBS) for 2 hr at room temperature. After washing with PBS plus 0.5% Tween-20, the membranes were then incubated with the secondary antibody goat anti-rabbit IgG (H+L)-HRP (Santa Cruz Biotechnology, CA) at 1:8000 dilution in blocking solution for 2 h at room temperature. […]

FasL = FasL mRNA expression by RT-PCR in treated YHES cells; assay type: cell-based, human
Method: as §1, §2

Fas = Fas mRNA expression by RT-PCR in treated YHES cells; assay type: cell-based, human; details: TSA 10 μM, time not stated
Method: as §1, §2

endometriotic cells = assay: Sensitivity of endometriotic versus endometrial cells to TSA (unpublished observation); assay type: cell-based; details: Wu and Guo
endometrial cells = details: immortalized human endometrial stromal cells; cited from earlier work
YHES cells = assay: Long-term culture and morphology after treatment; assay type: cell-based, human
Description: The micrographs of the first two rows were taken using 20× magnification, and those of the third row were taken using 10× magnification. The micrographs of the first row and the first two micrographs of second row were obtained using differential inference contrast (DIC) optic; the others were obtained without the DIC optic. […]

[4] = system: endometrial stromal cells; details: in vitro; cited from earlier work
[5] = system: YHES cells pretreated with H2O2; assay: H2O2-induced cell proliferation, MTT assay; assay type: cell-based, human; details: 100 μM, H2O2 1 μM, 48 hours, vs H2O2 only
Method: MTT assay was performed after 48 hours of treatment.
as §3
The addition of H202 was meant to mimic the oxidative stress as reported in endometriosis. […] RU486 suppressed cell proliferation by 75% at the concentration of 100 μM.

[6] = 8 h, 18 h and 36 h, TSA 10 μM, CDB 100 μM, NAC 10 mM, semi-quantitative RT-PCR

**Q.** Which results are given for `CC(/C=C/C(=O)NO)=C\[C@@H](C)C(=O)c1ccc(N(C)C)cc1` [TSA, trichostatin A]?
**A.** PR-A mRNA expression level vs untreated control (PR-A; [6]): increased; PR-A expression, comparison among treatment groups (PR-A; overall, real-time RT-PCR): greatest increase; effect on IL-1β-induced COX-2 expression (COX-2): suppresses IL-1β-induced COX-2 expression; AR mRNA expression level vs untreated control (AR [1]; [6]): increased; decrease of AR expression as compared with the control group (AR [1]; 36 h of treatment, real-time RT-PCR): about 50%; PR-B mRNA expression level vs untreated control (PR-B; [6]): increased; PR-B expression, comparison among treatment groups (PR-B; overall, real-time RT-PCR): greatest increase; reduction of cell proliferation as compared with controls ([2]; 100 μM): ~90%; effect on cell proliferation ([2]; across 100, 10, 1, 0.1 μM): strong concentration-dependent antiproliferative effect; AR protein level vs control group (AR [3]): highest expression; increase in FasL expression as compared with the controls (FasL; 18 h after the treatment): ~25 fold; FasL expression (FasL; especially 18 and 36 h after the treatment): dramatic increase; Fas expression vs control group (Fas): lower than the control group; sensitivity of endometriotic cells relative to endometrial cells (endometriotic cells): over 100 fold; effect on cell cycle (endometrial cells): induce cell cycle arrest; cell morphology (YHES cells; 24 h after the treatment): signs of apparent apoptosis; recovery judged by morphology (YHES cells; four weeks after the treatment, TSA and RU486 at 100 μM): did not recover; effect on proliferation [4]: suppresses proliferation of endometrial stromal cells; also recorded: suppressing proliferation of endometrial and endometriotic cells in vitro; suppression of H2O2-induced cell proliferation [5]: 50%

From patent US20070287676A1, “Diagnosis and treatment of endometriosis” (priority 2006, published 2007)
